According to ChEMBL document CHEMBL1154774, “Neglected tropical diseases: multi-target-directed ligands in the search for novel lead candidates against Trypanosoma and Leishmania” (J Med Chem, 2009):

Experiments:
[1] = system: Leishmania mexicana; assay: Leishmanistatic activity against Leishmania mexicana; assay type: functional
[2] = Selectivity index, ratio of cytotoxicity against mammalian cells to IC50 for Trypanosoma cruzi Tulahuen 2; assay type: toxicity, cell-based; details: read-out: Selectivity Index
[3] = molecular target: Trypanothione reductase (Trypanosoma cruzi, UniProt P28593); assay: Inhibition of Trypanosoma cruzi trypanothione reductase
Sequence of Trypanothione reductase (P28593 whole entry): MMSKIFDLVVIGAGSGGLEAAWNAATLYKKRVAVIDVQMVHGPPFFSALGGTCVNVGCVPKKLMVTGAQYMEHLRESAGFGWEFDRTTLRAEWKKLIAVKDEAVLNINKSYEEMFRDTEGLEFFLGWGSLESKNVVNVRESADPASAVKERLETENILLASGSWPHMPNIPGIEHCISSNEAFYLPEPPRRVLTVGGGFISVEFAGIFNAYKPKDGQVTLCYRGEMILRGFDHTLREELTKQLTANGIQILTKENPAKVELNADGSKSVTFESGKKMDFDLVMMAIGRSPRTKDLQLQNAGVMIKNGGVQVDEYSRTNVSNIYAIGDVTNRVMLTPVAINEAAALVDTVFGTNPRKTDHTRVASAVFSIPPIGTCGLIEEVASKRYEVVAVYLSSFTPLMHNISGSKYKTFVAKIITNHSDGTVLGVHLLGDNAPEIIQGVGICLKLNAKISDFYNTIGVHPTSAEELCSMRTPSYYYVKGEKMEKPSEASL

[4] = system: Trypanosoma cruzi; assay: Antitrypanosomal activity against Trypanosoma cruzi Tulahuen 2; assay type: functional, organism-based
[5] = Selectivity index, ratio of cytotoxicity against mammalian cells to IC50 for Trypanosoma brucei rhodesiense; assay type: toxicity, cell-based; details: read-out: Selectivity Index

With C/C(=N/Nc1ccccn1)[C@H]1CC[C@H]2[C@@H]3CC[C@H]4C[C@@H](O)CC[C@]4(C)[C@H]3CC[C@]12C the “growth inhibition (GI)” value [1] was 39%.
Compound NC(=S)N/N=C/c1ccc(OCc2ccc3no[n+]([O-])c3c2)cc1 has a selectivity ratio [2] of 27, an IC50 [3] of 43 µM and an IC50 [4] of 15 µM.
For O=C1C=C(Oc2ccccc2)C(=O)c2ccccc21, the selectivity ratio [5] was 74.
